Laboratory results: patent US11052090B2, “Use of TREM-1 inhibitors for treatment, elimination and eradication of HIV-1 infection” (priority 2015, dated 2021)

Assays:
[1] = system: mice; conditions: mouse, in vivo; cited from earlier work
[2] = system: primary human lymphocytes; experiment: Proliferation and viability of activated PBM cells / PHA or PHA+IL-2 stimulated primary human lymphocytes; type: cell-based; conditions: for Viability, proliferation or total cell number not affected up to: human
Description: The toxicity of the compounds was assessed in Vero, human PBM, CEM (human lymphoblastoid), as described previously (see Schinazi R. F., Sommadossi J.-P., Saalmann V., Cannon D. L., Xie M.-Y., Hart G. C., Smith G. A. & Hahn E. F. Antimicrob. Agents Chemother. 1990, 34, 1061-67), and also in MØ cells. Cycloheximide was included as positive cytotoxic control, and untreated cells exposed to cell culture medium were included as negative controls. […]
Cell proliferation was evaluated in activated PBM cells incubated for 5 days with various concentrations of Tofacitinib and Jakafi, with cycloheximide as a positive control, and a “cells plus media” control used as well. The data is shown in FIG. 2, in terms of total cell number (10^6 cells) versus μM drug in medium.
Cell viability was evaluated in activated PBM cells incubated for 5 days with various concentrations of Tofacitinib and Jakafi, with cycloheximide as a positive control, and a “cells plus media” control used as well.
For all experiments, cells were incubated with media alone or drug-containing medium for 5 days prior to assessment of cell count and viability. […] Data are mean and standard deviations for at least three independent experiments conducted with at least four pooled donors, and duplicates within each experiment. Dotted bar represents mean cell count or viability for cells maintained in drug-free medium.

[3] = system: HIV-1 (BaL); experiment: microbe, parasite or virus in culture; type: cell-based
Description: Macrophages can be isolated as follows: Monocytes can be isolated from buffy coats of HIV-1 negative, HBV/HCV-negative donors with density gradient centrifugation coupled with enrichment for CD14+ monocytes with Rosette Sep antibody cocktail (Stem Cell Technologies, Vancouver, British Columbia). Cells can be seeded at a concentration of 1.0×10^6 cells/well for 1 hr at 37° C. and 5% CO2 to confer plastic adherence prior to repeated washes with 1×PBS. Macrophages can be maintained in medium containing 100 U/ml macrophage colony-stimulating factor (m-CSF, R&D Systems, Minneapolis, Minn.), supplemented with 20% fetal calf serum (Atlanta Biologicals, Lawrenceville, Ga.) and 1% penicillin/streptomyocin (Invitrogen, Carlsbad, Calif.) for 7 days (37° C., 5% CO2) prior to testing.
Macrophage infections: Macrophages can be cultured as described above for 7 days. For acute infection, macrophages can be serum starved for 8 hrs prior to infection and cultured for 2 hr in medium containing various concentrations of AZT (positive control) or Tofacitinib or Jakafi for 2 hr prior to removal of drug-containing medium and 4 hr infection with HIV-1BaL at 0.1 MOI in the absence of drug. Four hr after infection, virus can be removed and drug-containing medium returned to the cultures. Supernatants can be collected on day 7 post-infection and HIV-1 p24 can be quantified via ELISA (Zeptometrix Corporation, Buffalo, N.Y.). EC50 analysis can be performed using CalcuSyn software (BioSoft Corporation, Cambridge, UK).
Extracellular virus was quantified 7 days after infection (HIV-1 p24 ELISA).

[4] = system: HIV-1
Description: Human PBM cells can be isolated as follows: Lymphocytes can be isolated from buffy coats derived from healthy donors. Activated lymphocytes can be maintained for 72 hr in medium supplemented with 6 μg/ml phytohemagglutinin (PHA) (Cape Cod associates, East Falmouth, Mass.). Media can be comprised of RPMI media supplemented with 20% fetal calf serum, 1% penicillin/streptomyocin and 2% L-glutamine (Sigma Aldrich, San Jose, Calif.).
Human PBM cell infections: Testing can be performed in duplicate with at least 3 independent assays. Cells can be incubated in RPMI medium (HyClone, Logan, Utah) containing HR-IL2 (26.5 units/ml) and 20% fetal calf serum. Infections can be performed by adding HIV-ILA' followed by a further incubation at 37° C., 5% CO2, 1 hr prior to addition of drugs. Assays can be performed in 24 well plates (BD Biosciences, Franklin Lakes, N.J.). One ml of supernatant can be collected after 5 days in culture and then centrifuged at 12,000 rpm for 2 hr at 4° C. in a Jouan Br43i (Thermo Electron Corp., Marietta, Ohio). The product of the RT assay can be quantified using a Packard harvester and direct beta counter and the data can be analyzed as previously described (Schinazi et al., 1990).

[5] = system: MØ cells; type: cell-based; conditions: human
Description: The toxicity of the compounds was assessed in Vero, human PBM, CEM (human lymphoblastoid), as described previously (see Schinazi R. F., Sommadossi J.-P., Saalmann V., Cannon D. L., Xie M.-Y., Hart G. C., Smith G. A. & Hahn E. F. Antimicrob. Agents Chemother. 1990, 34, 1061-67), and also in MØ cells. Cycloheximide was included as positive cytotoxic control, and untreated cells exposed to cell culture medium were included as negative controls.
The cytotoxicity IC50 was obtained from the concentration-response curve using the median effective method described previously (see Chou T.-C. & Talalay P. Adv. Enzyme Regul. 1984, 22, 27-55; Belen'kii M. S. & Schinazi R. F. Antiviral Res. 1994, 25, 1-11).

[6] = system: primary human macrophages; experiment: Toxicity in primary human macrophages (zombie violet live/dead dye, FACS); type: cell-based; conditions: Macrophage
[7] = system: HepG2 cells; conditions: 10 μM; cited from earlier work

In the case of “LR6-2: EDAGEY, SEQ ID NO 5 (listed as Homo sapiens)”, the “Protection of mice against polymicrobial sepsis” value (shortened to “Protection of mice”) [1] is given as “protect”.

In the case of `C[C@@H]1C[C@@H]([C@H](O)CC2CC(=O)NC(=O)C2)C(=O)[C@@H](C)C1` [cycloheximide], the “Cell count and viability (positive control)” value ([2]; stimulated lymphocytes, 5 days) is reported as “toxic in a dose dependent manner”.

In the case of `C[C@@H]1CCN(C(=O)CC#N)C[C@@H]1N(C)c1ncnc2[nH]ccc12` [Tofacitinib, 3-{(3R,4R)-4 methyl-3-[methyl-(7H-pyrrolo[2,3-d]pyrimidin-4-yl)-amino]-piperidin-1-yl}-3-oxo-propionitrile], the “Inhibition of HIV-1 replication in MØ cells” value [3] is reported as “sub-micromolar”, the “Inhibition of HIV-1 replication in PBM cells” value [4] is reported as “sub-micromolar” and the “Proliferation versus cells exposed to media alone” value [2] is reported as “not significantly different”. The Total cell proliferation [2] was “do not affect”, the Total cell viability [2] was “do not affect” and the “Viability versus cells exposed to media alone” value [2] was “not significantly different”. For the same compound, the “Viability, proliferation or total cell number not affected up to” value ([2]; 5 days) was “around 10 μM” and the “Viability, proliferation or total cell number not affected up to” value [5] was “around 10 μM”.

With `Cc1cn([C@H]2C[C@H](N=[N+]=[N-])[C@@H](CO)O2)c(=O)[nH]c1=O` [AZT, 3′-azido-3′-deoxythymidine] the “Inhibition of HIV-1 replication in primary human macrophages” value ([3]; HIV-1 BaL, p24 ELISA day 7) was “nanomolar inhibition”, the EC50 ([3]; Human immunodeficiency virus 1, Macrophage, 168 h, HIV-1 BaL, extracellular virus 7 days after infection, read-out: Antiviral potency in primary human macrophages (EC50)) was 10 ± 20 nM and the EC90 ([3]; Human immunodeficiency virus 1, Macrophage, 168 h, HIV-1 BaL, extracellular virus 7 days after infection, read-out: Antiviral potency in primary human macrophages (EC90)) was 700 ± 200 nM. The IC50 [6] was over 100000 nM.

With `N#CC[C@H](C1CCCC1)n1cc(-c2ncnc3[nH]ccc23)cn1` [Jakafi] the “Inhibition of HIV-1 replication in MØ cells” value [3] was “sub-micromolar”, the “Inhibition of HIV-1 replication in PBM cells” value [4] was “sub-micromolar” and the “Proliferation versus cells exposed to media alone” value [2] was “not significantly different”. For the same compound, the Total cell proliferation [2] was “do not affect”, the Total cell viability [2] was “do not affect” and the “Viability versus cells exposed to media alone” value [2] was “not significantly different”. The “Viability, proliferation or total cell number not affected up to” value ([2]; 5 days) was “around 10 μM” and the “Viability, proliferation or total cell number not affected up to” value [5] was “around 10 μM”.

In the case of `O=c1[nH]c(=O)n([C@@H]2O[C@H](CO)[C@@H](O)[C@@H]2F)cc1I` [fialuridine, 1,2′-deoxy-2′-fluoro-1-D-arabinofuranosly-5-iodo-uracil], the “Mitochondrial morphology in electron micrographs” value [7] is given as “enlarged mitochondria with morphological changes consistent with mitochondrial dysfunction”.

In the case of “LR6-1: LQEEDA, SEQ ID NO 4 (listed as Homo sapiens)”, the “Protection of mice” value [1] is given as “protect”.

In the case of “LR6-3: GEYGCM, SEQ ID NO 6 (listed as Homo sapiens)”, the “Protection of mice” value [1] is given as “protect”.
